We go through 18 compounds from patent publication US5185377A, “Diphenyl compounds which inhibit arachidonic acid metabolism, and their use in pharmaceutical compositions” (Ciba-Geigy Corporation, priority 1990, dated 1993).

Read-outs that look alike come from different tables or passages of the source.

One data set deals with T1, 15-lipoxygenase (Oryctolagus cuniculus, UniProt P12530).
T1 construct: The lipoxygenase from rabbit reticulocytes is obtained in an electrophoretically and immunologically pure form; from tissue; host or cells: rabbit reticulocytes
T1 sequence (P12530 1-663): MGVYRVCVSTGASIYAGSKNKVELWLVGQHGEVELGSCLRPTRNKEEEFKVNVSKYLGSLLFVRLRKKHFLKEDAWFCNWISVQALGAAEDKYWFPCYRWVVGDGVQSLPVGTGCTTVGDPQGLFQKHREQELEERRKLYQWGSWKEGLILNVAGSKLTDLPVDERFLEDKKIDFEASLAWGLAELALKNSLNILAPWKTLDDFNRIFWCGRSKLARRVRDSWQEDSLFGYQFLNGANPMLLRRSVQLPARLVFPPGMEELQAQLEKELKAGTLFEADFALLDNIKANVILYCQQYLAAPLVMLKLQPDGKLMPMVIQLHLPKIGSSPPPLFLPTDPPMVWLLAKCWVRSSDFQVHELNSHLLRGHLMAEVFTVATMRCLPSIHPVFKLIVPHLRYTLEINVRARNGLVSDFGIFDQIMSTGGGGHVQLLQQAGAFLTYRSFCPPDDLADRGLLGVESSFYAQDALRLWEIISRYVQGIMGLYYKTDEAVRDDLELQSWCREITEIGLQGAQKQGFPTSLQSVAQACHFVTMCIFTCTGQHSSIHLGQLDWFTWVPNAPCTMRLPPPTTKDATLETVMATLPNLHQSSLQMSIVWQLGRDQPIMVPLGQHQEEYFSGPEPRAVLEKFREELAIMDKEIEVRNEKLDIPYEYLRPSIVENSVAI
In words: Inhibition of the activity of 15-lipoxygenase from rabbit reticulocytes. The class given is biochemical. How it is done:
The lipoxygenase from rabbit reticulocytes is obtained in an electrophoretically and immunologically pure form by the method described in the literature [S. M. Rapoport et al., Eur. J. Biochem. 96, 545 (1979]. The lipoxygenase activity is determined at 25° C. via amperometric measurement of the O2 consumption by means of a Clark electrode in the following system: 0.1 M potassium phosphate pH 7.4 containing 0.2% of sodium cholate and 0.53 mM linoleic acid. The enzyme concentration in the measurement bath is 25 nM. The substances to be tested are added as a solution in methylglycol (freshly distilled). […] The enzyme reaction is started by addition of sodium cholate and linoleic acid. The titration curve of the inhibition and from this the concentration needed for 50% inhibition are determined by varying the active ingredient concentration.

For a further data set, the target named is T2, prostaglandin H synthase (Ovis aries, UniProt P05979).
T2 construct: H synthase from sheep seminal vesicles is obtained by the method described in the literature; from tissue; host or cells: sheep seminal vesicles
T2 sequence (P05979 25-600): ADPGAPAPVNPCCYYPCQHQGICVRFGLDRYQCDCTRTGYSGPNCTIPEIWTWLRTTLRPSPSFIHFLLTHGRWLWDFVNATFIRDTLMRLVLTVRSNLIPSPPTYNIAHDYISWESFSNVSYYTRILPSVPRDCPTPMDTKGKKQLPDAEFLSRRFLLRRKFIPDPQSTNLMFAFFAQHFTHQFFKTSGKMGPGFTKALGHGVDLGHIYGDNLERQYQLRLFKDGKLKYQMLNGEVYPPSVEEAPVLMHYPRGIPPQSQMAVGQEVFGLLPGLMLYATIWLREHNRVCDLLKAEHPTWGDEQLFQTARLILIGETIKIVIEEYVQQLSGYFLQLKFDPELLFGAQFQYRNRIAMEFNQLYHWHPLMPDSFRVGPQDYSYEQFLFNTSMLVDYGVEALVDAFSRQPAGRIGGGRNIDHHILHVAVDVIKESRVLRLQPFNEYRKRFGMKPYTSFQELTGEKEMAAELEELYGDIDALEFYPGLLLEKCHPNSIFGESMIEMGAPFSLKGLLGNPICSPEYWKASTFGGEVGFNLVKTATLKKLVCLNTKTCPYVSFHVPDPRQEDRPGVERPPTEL
In words: Inhibition of the activity of prostaglandin H synthase from sheep seminal vesicles. The class given is biochemical. How it is done:
Prostaglanding H synthase from sheep seminal vesicles is obtained by the method described in the literature by Van der Oudaraa, F. J. G.; Buytenhek, M.; Methods Enzymol. 86, 60 (1982).
The enzyme activity is determined at 25° C. by polargraphic measurement of the oxygen consumption with a Clark electrode.
The measurement batch consists of […] ml^-1 of prostaglandin H synthase in 0.1 M Tris-HCl buffer pH=8.0, 5 mM tryptophan, 1 μM haemin and 0.124 mM arachidonic acid. The substances to be tested are dissolved in methylglycol and incubated with the enzyme in the absence of arachidonic acid for 10 minutes at 25° C. The enzyme reaction is started with arachidonic acid.
The titration curve of the inhibition and from this the concentration needed for 50% inhibition are determined by varying the active ingredient concentration.

For data set [1], the system named is isolated lung parenchyma strips. The data set can be described thus: Arachidonic acid-induced contraction of isolated lung parenchyma strips. The class given is cell-based, guinea-pig. Conditions: for inhibition at 50 µM: 5×10^-5 M. How it is done: Testing of antiasthmatic active qualities of triclosan and fenticlor in vitro is carried out on isolated tracheal spirals and lung parenchyma strips of adult guinea-pigs (250-500 g) of both sexes. The tracheal spirals are prepared by the method described by Constantine [J. W. Constantine et al., J. Pharm. Pharmacol. 17, 384 (1965)]. Particular emphasis is placed on complete removal of the surrounding connective tissue and on maintaining the integrity of the epithelium [N. A. Flavahan et al., J. Appl. Physiol. 58, 834 (1985)].
The lung parenchyma strip is prepared in accordance with the method described by Del Monte [L. Del Monte et a., Naunym-Schmiedebergs Arch. Pharmacol., 338, 417 (1988)]. The contraction of the isolated organs is determined as isotonic measurement of the path under standardised conditions [J. Slapke et al., Biomed. Biochim. Acta 42, 1309 (1983)] in a multiple organ bath.
A modified Krebs-Henseleit solution (pH=7.4) of the following composition is used for the studies (m×mol 1^-1): NaCl 134.8, KCl 5.9, Tris 10.02, CaCl2 1.82, MgCl2 1.145, glucose 1.11. Air is used for gassing. The bath temperature is 37° C. for the lung parenchyma strips and 35° C. for the tracheal spirals. Conditioning of the preparations is performed several times with 5×10^-4 M acetylcholine to obtain the standardisation value, this substance subsequently being flushed out. In all studies, the contractions are induced by addition of arachidonic acid to the organ bath in increasing concentrations and are measured cumulatively. All the measurements are made in the present of 5 μM indomethacin.

The conditions of data set [2]: literature statement; G. B. Kasting et al. cited for the non-steroidal drugs; cited from earlier work.
Data set [3] relates to ovalbumin-induced bronchoconstriction. In words: Ovalbumin-induced bronchoconstriction in the ovalbumin-sensitised guinea-pig. The class given is in vivo. How it is done: Guinea-pigs are sensitised i.p. with 10 μg of ovalbumin and 100 mg of aluminium hydroxide in 0.5 ml of isotonic saline solution by the method of Anderson [P. Anderson, Brit. J. Pharmacol. 77, 301 (1982)]. After 14 days, the conscious animals are given a booster by inhalation of a 0.1% strength atomised ovalbumin solution. Only animals with a positive reaction are used for comparison from the fourth day after the booster. Guinea-pigs with a body weight of 450-550 g are were anaesthetised with 1.3 g/kg of ethylurethane i.p. Thereafter, a cannula is connected to the trachea. The animals are relaxed with 0.2 mg/kg pancuronium bromide i.v. and respirated in a tank respirator (f=20/min, p.=3 pPa, I:E=1:1). The animals breath in air from the room by the tracheal cannula led to the outside. The tidal volume VT is measured pneumota- chographically. 1 mg/kg of ovalbumin in 300 μl of water is instilled intratracheally to induce the spasm [G. Becher et al., Z. Erkrankg., Arm.-org. 166, 223 (1986)].
Statistical analysis of the results is carried out with the parameter-free U-test according to Mann and Whitney, p.≤0.05.

For data set [4], the system named is arachidonic acid-induced bronchoconstriction. The data set can be described thus: Arachidonic acid-induced bronchoconstriction in the guinea-pig. The class given is in vivo. How it is done: A bronchospasm is induced in non-sensitised guinea-pigs in the same experimental design as in Example 2 by intratracheal instillation of 2 mg/kg of Na arachidonate solution in phosphate buffer pH=7.4 [G. Becher et al., Z. Erkrankg. Atm.-org. 171, 85 (1988)].

Setting [5] is: Cavia porcellus, 5 μM indomethacin.
Setting [6] is: 100 mg/kg p.o. 2 hours before, ovalbumin 1 mg/kg intratracheally.
[7] abbreviates: 100 mg/kg p.o. 2 hours before, Na arachidonate 2 mg/kg intratracheally.

Regarding `Oc1c(Cl)cc(Cl)c(O)c1Cc1c(O)c(Cl)cc(Cl)c1O` [2,2'6,6'-Tetrahydroxy-3,3',5,5'-tetrachloro-diphenylmethane], the values for the IC50 on 15-lipoxygenase and at prostaglandin H synthase were 3.6 µM and 17 µM, respectively.

`Oc1c(Cl)cc(Cl)c(Cl)c1Cc1c(O)c(Cl)cc(Cl)c1Cl` [2,2'-Dihydroxy-3,3',5,5',6,6'-hexachloro-diphenylmethane]: the IC50 against 15-lipoxygenase amounted to 3.5 µM; against prostaglandin H synthase, 17 µM.

For `Oc1c(Br)cc(Br)cc1Cc1cc(Br)cc(Br)c1O` [2,2'-Dihydroxy-3,3',5,5'-tetrabromo-diphenylmethane], the IC50 on 15-lipoxygenase amounted to 2.8 µM; on prostaglandin H synthase it was 45 µM.

As for `Oc1c(Cl)cc(Cl)cc1Cc1cc(Cl)cc(Cl)c1O` [2,2'-Dihydroxy-3,3',5,5'-tetrachloro-diphenylmethane], the IC50 on 15-lipoxygenase (25° C., pH 7.4, 0.53 mM linoleic acid, enzyme 25 nM, read-out: 15-LOX IC50) was 9.5 µM; at prostaglandin H synthase (25° C., pH=8.0, 0.124 mM arachidonic acid, 10 minutes preincubation, read-out: PG H synthase IC50), 60 µM.

Regarding `Oc1c(Cl)cc(Br)cc1Cc1cc(Br)cc(Cl)c1O` [2,2'-Dihydroxy-3,3'-dichloro-5,5'-dibromo-diphenylmethane], the figures for the IC50 at 15-lipoxygenase and at prostaglandin H synthase were 3.8 µM and 28 µM, respectively.

Take `Cc1cc(Cc2ccccc2)cc(Cl)c1O` [2-Chloro-6-methyl-4-benzylphenol]: the IC50 at 15-lipoxygenase turned out to be 28 µM; on prostaglandin H synthase, 35 µM.

On to `Oc1c(Br)cc(Cc2cc(Br)c(O)c(Br)c2)cc1Br` [4,4'-Dihydroxy-3,3',5,5'-tetrabromo-diphenylmethane], for which the IC50 was 5 µM against 15-lipoxygenase and 17 µM on prostaglandin H synthase.

With `Oc1c(Cl)cc(Cc2cc(Cl)c(O)c(Br)c2)cc1Br` [4,4'-Dihydroxy-3,3'-dibromo-5,5'-dichloro-diphenylmethane], the IC50 against 15-lipoxygenase turned out to be 10.5 µM; against prostaglandin H synthase it was 180 µM.

For the compound `Cc1cc(Cl)cc(Cc2ccccc2)c1O` [4-Chloro-2-methyl-6-benzylphenol], the IC50 against 15-lipoxygenase stood at 2.5 µM; at prostaglandin H synthase, 30 µM.

As a reminder, the inhibition is the drop in the measured response relative to a control, in per cent. A low value points to a weak effect. For the compound `NC1=NN(c2cccc(C(F)(F)F)c2)CC1` [BW 755 C], the inhibition at 50 µM in data set [1] (setting [5]) was found to be 50%.

`Oc1ccc(Cl)cc1Cc1ccccc1` [chlorophene, 2-Benzyl-4-chlorophenol]: the IC50 at 15-lipoxygenase was determined as 2 µM; at prostaglandin H synthase, 40 µM.

With `O=C(O)Cc1ccccc1Nc1c(Cl)cccc1Cl` [diclofenac], the skin penetration entry in data set [2] is listed as “inadequate skin penetration”.

On to `Oc1ccc(Cl)cc1Sc1cc(Cl)ccc1O` [fenticlor, 2,2'-dihydroxy-5,5'-dichloro-diphenyl sulfide], for which the IC50 in data set [1] (Cavia porcellus, read-out: ID50) was determined as 5 µM; against 15-lipoxygenase, 1.4 µM; against prostaglandin H synthase it was 15.5 µM. In addition, the “inhibition of the maximum bronchospasm” value is given as 60% in data set [3] (setting [6]) and 16.5% in data set [4] (setting [7]). The “time to return to the starting volume (tidal volume)” value in data set [3] (setting [6]) and in data set [4] (setting [7]) was 25 min in each case. Also, the “reduction of the allergic reaction (bronchoconstriction)” value in data set [3] (fenticlor 100 mg/kg p.o. 2 hours before, in comparison with controls, p≤0.05) is recorded as “reduced significantly”. The “inhibition of the arachidonic acid-induced bronchoconstrictive reaction” value in data set [4] (fenticlor 100 mg/kg p.o. 2 hours before, U-test p≤0.05) is “inhibited significantly (parameter-free U-test according to Mann and Whitney, p≤0.05) from the fifth minute”.

In the case of `COc1ccc2c(c1)c(CC(=O)O)c(C)n2C(=O)c1ccc(Cl)cc1` [indomethacin], the skin penetration entry in data set [2] is “inadequate skin penetration”.

Take `CC(C(=O)O)c1cccc(C(=O)c2ccccc2)c1` (stereo not drawn) [ketoprofen]: in data set [2], the skin penetration result is given as “inadequate skin penetration”.

`CN1CCC(=C2c3ccccc3CC(=O)c3sccc32)CC1` [ketotifen] yielded an inhibition at 1 µM in data set [1] (Cavia porcellus, 10^-6 M, 5 μM indomethacin) of 25%.

`CC(Cc1ccc(O)c(O)c1)C(C)Cc1ccc(O)c(O)c1` (stereo not drawn) [nordihydroguarjiaretic acid] displayed an inhibition at 50 µM in data set [1] (setting [5]) of 50%.

On to `Oc1cc(Cl)ccc1Oc1ccc(Cl)cc1Cl` [triclosan, 2,4,4'-trichloro-2'-hydroxy-diphenyl ether], for which the “inhibition of the arachidonic acid-induced contraction” value in data set [1] (10^-6 M triclosan, arachidonic acid 10^-7 -10^3 M (so in the source), 5 μM indomethacin) is on record as “complete inhibition”. Besides, in data set [1] (triclosan concentrations of >10^-6 M), the “relaxation on isolated lung parenchyma strips” value is recorded as “pronounced dose-related relaxation”. The IC50 on 15-lipoxygenase worked out at 2.4 µM; against prostaglandin H synthase, 23 µM.
